Test [1] relates to BM myeloid cells. The test is described as follows: Flow cytometric analysis of BM cells (uPAR, Gr-1, Sca-1) in proteinuric animal models. It is filed as in vivo, mouse. How it is done: (§1) Proteinuric animal models. i) LPS injected mice. Proteinuria was induced with single injection of LPS as described previously (Wei et al., 2008; Wei et al.,). Briefly, mice were injected with LPS (Sigma) i.p at a dose of 10 mg per kg body weight. The mice injected with PBS were used as a control. Twenty-four hours after LPS treatment, urine and blood samples were collected and kidney, femurs, and tibias were harvested from the sacrificed mice.
ii) Pod-Rac1, Inducible EGFP_CA-Rac1 transgenic mice. EGFP_CA-Rac1 transgenic mice were crossed to Nphs1-rtTA (NEF-rtTA) inducer mice to generate double transgenic (dTG, NEF×Rac1) mice. Male mice were used in this study. To induce transgene expression, regular chow was replaced with doxycycline (DOX)-supplemented chow (2,000 ppm; TestDiet). Single transgenic (EGFP_CA-Rac1) mice were used as a control. Twelve days after DOX diet, urine and blood samples were collected and kidney, femurs, and tibias were harvested from the sacrificed mice. Hi) Adiamycin (ADR) injected mice: Proteinuria was induced with single injection of ADR as described previously. (Wang et al.) Briefly, male BALB/c mice were injected with ADR (Doxorubicin Hydrochloride, Sigma) via the tail vein at a dose of 11 mg per kg body weight. Six days after ADR injection, urine and blood samples were collected and kidney, femurs, and tibias were harvested from the sacrificed mice. iv) TGF β1 transgenic mice: The transgenic mice that express an active form of TGF β1 under the control of murine albumin promoter developed proteinuria as described previously (Kopp et al.). Since the transgene is on the Y chromosome, male mice (<4-week-old) with severe phenotype were used. Littermate female mice were used as a control. v) Nephrotoxic serum (NTS) nephritis model: Proteinuria was induced by injection of NTS as described previously (Kistler et al.). Briefly, male C57BL6 mice were injected i.p with sheep anti-rabbit glomerular basement membrane antibody at a dose of 500 mg per kg body weight on consecutive days. The mice injected PBS were used as a control. Seven days after injection, urine and blood samples were collected and kidney, femurs, and tibias were harvested from the sacrificed mice. vi) BTBR ob/ob diabetic nephropathy (DN) model: The mouse strain BTBR with the ob/ob leptin-deficiency mutation developed severe type 2 diabetes with heavy proteinuria as described previously (Hudkins et al.). Wild-type (BTBR ob^+/+), heterozygous (BTBR ob^+/−), and homozygous (BTBR ob^−/−) mice were obtained by mating heterozygous (BTBR ob^+/−) mice. For DN model, 16-week-old homozygotes (BTBR ob^−/−) were used. Wild-type (BTBR ob^+/+) or heterozygote (BTBR ob^+/−) littermates were used as controls.
Purification of mouse PBLs and BMCs. To collect blood, mice were anesthetized, then the blood was drawn from posterior vena cava into acid-citrate-dextrose (ACD, Sigma) solution-containing 1 ml syringe. After lysis of red blood cells (RBCs), blood leukocytes were washed and counted. For BMCs purification, femurs and tibias were taken and flushed with a syringe filled with Hank's balanced salt solution (HBSS, Life Technologies) containing 0.1% bovine serum albumin and 20 mM HEPES (pH 7.4). […]
Flow cytometric analysis. […] And the cells were labeled for 30 minutes on ice with fluorescence-conjugated antibodies: Gr-1-allophycocyanin (APC), uPAR-phycoerythrin (PE), Sca-1-fluorescein isothiocyanate (FITC), c-kit-APC, and irrelevant IgG isotype control antibodies. […]
In general terms: Flow cytometry measures light scatter and fluorescence of single cells or particles in a stream.

Test [2] relates to suPAR. The test is described as follows: Circulating and urinary suPAR levels (ELISA) in proteinuric animal models. It is filed as in vivo, mouse. How it is done: (§2) Detection of circulating and urinary suPAR levels Mouse suPAR levels from plasma (and/or serum) and urine were evaluated by enzyme-linked immunosorbent assay (ELISA) kit (R&D systems) following the manufacturer's protocol.
as §1
ii) Pod-Rac1, Inducible EGFP_CA-Rac1 transgenic mice. EGFP_CA-Rac1 transgenic mice were crossed to Nphs1-rtTA (NEF-rtTA) inducer mice to generate double transgenic (dTG, NEF×Rac1) mice. Male mice were used in this study. To induce transgene expression, regular chow was replaced with doxycycline (DOX)-supplemented chow (2,000 ppm; TestDiet). Single transgenic (EGFP_CA-Rac1) mice were used as a control. Twelve days after DOX diet, urine and blood samples were collected and kidney, femurs, and tibias were harvested from the sacrificed mice. Hi) Adiamycin (ADR) injected mice: Proteinuria was induced with single injection of ADR as described previously. […]
A general note: An ELISA detects its analyte on a solid surface through an enzyme-linked reagent.

Test [3] has as its system LPS-challenged mice. The test is described as follows: LPS-induced proteinuria after pretreatment, albumin creatinine ratio (ACR). Format: in vivo, mouse. As to conditions: agent given prior to LPS challenge; urine 24 hours after LPS; compared to LPS alone / isotype control. How it is done:
(§3) Albumin creatinine ratio (ACR) measurement Mouse urine samples were collected and urinary albumin and creatinine were measured by mouse albumin ELISA (Bethyl Labs), and creatinine assay (Cayman chemical) kits according to manufacturers' protocols. The ratio of urinary albumin to creatinine was then calculated.
as §1
In vivo depletion. Anti-Ly6G monoclonal antibody (1A8, BioXcell) or control rat IgG2a antibody (2A3, BioXcell) was injected i.p into mice (500 μg per mouse) 48 hours and 1 hour prior to LPS injection. Neutrophil depletion was confirmed by flow cytometric analysis.
(§4) Treatment of granulocyte colony stimulating factor (G-CSF). Recombinant mouse G-CSF (Shenandoah Biotechology INC) was administrated by daily i.p injection into BALB/c mice at a dose of 4 μg per 20 g body weight for 2 consecutive days. Blood cell counts were determined using a Hemavet 950FS (Drew Scientific).
Treatment of plerixafor. […]

Test [4] has as its system BM cells. As to the kind of experiment: in vitro LPS stimulation on isolated BM cells. It is filed as cell-based, mouse. As to conditions: LPS 0.1, 1 and 10 μg/ml, 24-hour incubation, dose-dependent. How it is done: in vitro LPS stimulation on isolated BM cells. The BM cells were isolated from C57BL6 WT mice and treated with PBS or various concentrations of LPS (0.1, 1, and 10 μg/ml). Following 24-hour-incubation at 37 C in a CO2 incubator (5%), the cells and culture supernatants were collected. The cells were stained for uPAR, Sca-1, and Gr-1. The in vitro induction of uPAR+Sca-1^loGr-1^lo cells in total BM cells was determined by triple color-flow cytometric analysis. The culture supernatants were used for suPAR measurement.

Test [5] deals with NSG mice. The test is described as follows: Proteinuria (ACR) in LPS injected NSG mice. It is filed as in vivo, mouse. To be noted: LPS vs PBS, 24 hours after LPS administration. How it is done: as §3, §1
Test [6] deals with suPAR. As to the kind of experiment: Plasma suPAR levels (ELISA) in pretreated LPS-challenged mice. Format: in vivo, mouse. To be noted: G-CSF for two consecutive days prior to LPS; 24 hours after LPS; compared to LPS alone. How it is done: as §2, §1, §4
The mark [7] stands for this setting: ADR-induced nephropathy, male BALB/c, 11 mg per kg tail vein, six days after injection.

“Also recorded” adds a separate entry of the source. Structures can show the parent of a compound that is named as a salt.

For the molecule `COc1cccc2c1C(=O)c1c(O)c3c(c(O)c1C2=O)C[C@@](O)(C(=O)CO)C[C@@H]3O[C@H]1C[C@H](N)[C@H](O)[C@H](C)O1` [ADR, Doxorubicin Hydrochloride], the “percentage of Gr-1^lo myeloid cells in BM” value in test [1] (setting [7]) is given as “no significant increase”. Further, in test [2] (setting [7]), the “suPAR levels in the circulation or urine” value was “did not find elevated suPAR levels”.
As for `c1cc(CN2CCCNCCNCCCNCC2)ccc1CN1CCCNCCNCCCNCC1` [plerixafor, Plerixafor], the “proteinuria (ACR)” value in test [3] is reported as “did not enhance proteinuria”.
With lipopolysaccharide [LPS], the “expansion of uPAR-expressing MPCs (uPAR+Sca-1^lo Gr-1^lo cells in total BM cells)” value in test [4] is recorded as “stimulated the expansion of uPAR-expressing MPCs”. Also, the “suPAR secretion into the culture medium” value in test [4] (suPAR ELISA) is “stimulated”. Besides, the “proteinuria (ACR)” value in test [5] is “resulting in proteinuria; also recorded: caused proteinuria”. Besides, the “uPAR-expressing Sca-1/Gr-1^lo BM cell population (myeloid progenitor cells)” value in test [1] (LPS vs PBS injected mice, 24 hours) was “increased uPAR-expressing BM cell population; also recorded: increased the population of Sca-1^+Gr-1^lo myeloid progenitor cells”. Besides, the “uPAR expression on BM myeloid cells (not peripheral blood myeloid cells)” value in test [1] (LPS-treated vs PBS-treated mice) is given as “elevated levels of uPAR; also recorded: increased uPAR expression”. In addition, in test [1] (NSG mice, LPS vs PBS), the “uPAR expression on BM myeloid cells” value is listed as “increased uPAR expression on BM myeloid cells”. The “Gr-1^lo cells in BM (percentage; ratio to Gr-1^hi)” value in test [1] (WT mice, LPS vs PBS, 24 hours) is on record as “significant increase; also recorded: markedly increased ratio”. In addition, the “suPAR levels in blood and urine” value in test [2] (NSG mice, LPS vs PBS, 24 hours after LPS administration) was “elevated suPAR levels in both blood and urine; also recorded: enhanced blood suPAR levels”.

B1: G-CSF: Recombinant mouse G-CSF (Shenandoah Biotechology INC) (protein, UniProt P09920 31-208, looked up)
Granulocyte …: VPLVTVSALPPSLPLPRSFLLKSLEQVRKIQASGSVLLEQLCATYKLCHPEELVLLGHSLGIPKASLSGCSSQALQQTQCLSQLHSGLCLYQGLLQALSGISPALAPTLDLLQLDVANFATTIWQQMENLGVAPTVQPTQSAMPAFTSAFQRRAGGVLAISYLQGFLETARLALHHLA
Consider B1, for which the “proteinuria (ACR)” value in test [3] is “accelerated proteinuria”. For the same molecule, the “plasma suPAR levels” value in test [6] is given as “increased plasma suPAR levels; also recorded: enhanced plasma suPAR levels”.

For the origin of these results see patent US20180252705A1, “Myeloid Progenitor Cells in Kidney Disease” (Rush University Medical Center, priority 2015, published 2018).
